This note sets out measurements from patent US20130012506A1 (priority 2010, published 2013).

One experiment relates to M. tuberculosis H37Rv. Format: cell-based, Mycobacterium tuberculosis.
For experiment [1], the system named is M. tuberculosis clinical isolates. In kind it is cell-based, Mycobacterium tuberculosis. The conditions noted are these: multi-drug-resistant and extensive-drug-resistant isolates.

Turning to `NNC(=O)c1ccncc1` [INH, isoniazid], the Frequency of resistance in the experiment with M. tuberculosis H37Rv was 2.9×10^−6. For `Cc1cccn2c(=O)c(C=O)c(Nc3cccc(Cl)c3)nc12` [compound 133, 2-(3-Chlorophenylamino)-9-methyl-4-oxo-4H-pyrido[1,2-a]pyrimidine-3-carbaldehyde], the “MIC values for MDR-TB and XDR-TB isolates strains” value in experiment [1] was “within the micromolar range”. For the compound `O=c1c(CO)c(Nc2cccc(Cl)c2)nc2c(F)cccn12` [compound 264, 2-(3-Chlorophenylamino)-9-fluoro-3-(hydroxymethyl)-4H-pyrido[1,2-a]pyrimidin-4-one], the spontaneous mutational rate with M. tuberculosis H37Rv is 7×10^−7.
